Assay results taken from patent US5607934A, “Piperazine derivatives and salts thereof” (Otsuka Pharmaceutical Co., Ltd., priority 1993, dated 1997).
Converted amounts (≈) assume the structure as drawn.

Assays:
[1] = tested on: rat mesangial cell proliferation; experiment: Inhibitory effects on rat mesangial cell proliferation (interleukin-1β induced 3H-thymidine incorporation); type: cell-based, SD-strain rat; settings: 1 ng/ml interleukin-1β, read-out: Rate of inhibition; for inhibition at 3 µg/mL: concentration 3 μg/ml; for inhibition at 10 µg/mL: concentration 10 μg/ml
Protocol: Inhibitory effects on rat mesangial cell proliferation
The kidney of SD-strain rat was aseptically taken out by excision. and the renal cortex was cut out therefrom. The renal glomeruli were isolated by use of sieve. The glomeruli were cultivated in RPMI1640 culture medium [which contains 10% of FBS (fetal bovine serum)] for 4 weeks. Thus obtained cells were used as mesangial cells.
An experiment of incorporation of thymidine by interleukin-1β was conducted by procedures according to the method of Ganz [Michael B. Ganz; Mary C. Perfetto and Walter F. Boron: American Journal of Physiology, Vol. 259, F269-F278, (1990)]. Thus, 2×10^4 cells/ml of mesangial cells were scattered on a 48-well plate (0.5 ml/well), and the cells were cultivated in RPMI culture medium (which contains 10% of FBS) for 3 days. Then, the culture medium was changed to another RPMI culture medium in which the concentration of FBS was decreased from 10% to 0.5% and cultivated for 3 days. Next, the RPMI culture medium (containing 0.5% of FBS) was changed to other RPMI culture medium to which the test compound and 1 ng/ml of interleukin-1β were added. The cultivation was conducted for 24 hours, then 1 μCi/well of 3H-thymidine was added to the culture medium, and the cultivation was continued for additional 24 hours.
The amount of ^3 H-thymidine being incorporated into the mesangial cells was measured by use of a scintillation counter, and the rate of inhibition (%) in comparison of the test group vs. control group was calculated by the following formula:
Rate of inhibition (%)=[(C-D)/(C-E)]×100
C: the incorporated amount of ^3 H-thymidine in control group;
D: the incorporated amount of ^3 H-thymidine in the case of that test compound was added;
E: the incorporated amount of ^3 H-thymidine in the case of that interleukin-1β was not added.

[2] = tested on: releasing of hydrogen peroxide (H2 O2) from the neutrocyte of abdominal cavity of rat; experiment: Inhibitory effect against the releasing of hydrogen peroxide (H2O2) from the neutrocyte of abdominal cavity of rat; type: cell-based, SD-strain rat; settings: rat neutrocytes 10^6 cells/ml; FMLP 2×10^-6 M; 37° C., 1 hour; OD610
Protocol: Inhibitory effect against the releasing of hydrogen peroxide (H2 O2) from the neutrocyte of abdominal cavity of rat
1%-Casein solution was administered to the abdominal cavity of a SD-strain rat, then 16 hours after the administration, the neutrocytes were obtained by washing the abdominal cavity. Thus obtained neutrocytes were washed with Hank's solution.
In to a reaction mixture consisting of the following ingredients:
______________________________________
HRP (Horse Radish peroxide)
HEPES [N-(2-Hydroxyethyl)pipera-
zine N'-2-ethanesulfonic acid]
Rat neutrocytes 10^6 cells/ml
the test compound was added, then the whole mixture was incubated at 37° C. for 1 hour, and the mixture was subjected to a centrifugal separation at 2,000 rpm for minutes. After the centrifugal separation, 1 ml of the supernatant was sampled and 10 μl of 1N-NaOH aqueous solution was added thereto. Then, the optical absorbance at 610 nm (OD610) of the supernatant was determined by means of using a spectro-photometer.
The IC50 (50% inhibitory concentration) of the test compound was obtained by calculating as the ratio of OD610 of the test group sample to that of the control group sample.

[3] = tested on: superoxide radicals (O2^-) released from the peritoneal macrophage cells of guinea pig; experiment: Inhibitory effect against superoxide radicals (O2^-) released from the peritoneal macrophage cells of guinea pig by stimulation (FMLP); type: cell-based; settings: Cavia porcellus, Peritoneal macrophage cell; guinea pig peritoneal macrophages 2×10^6 cells/ml; FMLP 10^-7 M; cytochrome C reduction, OD550
Protocol: Inhibitory effect against superoxide radicals (O2^-) released from the peritoneal macrophage cells of guinea pig by stimulation:
Mineral oil (15 ml)was intraperitoneally administered to a guinea pig, then 96 hours after the administration, the peritoneal macrophage cells were sampled.
Superoxide radicals (O2^-) were determined by means of reduction of cytochrome C method according to the procedure described in an article written by T. Matsumoto, K. Takeshige and S. Minakami: Biochemical and Biophysical Research Communications, Vol. 88, No. 3, pp. 974-979, (1979).
Into 1 ml of 80 μM-cytochrome C solution, the peritoneal macrophage cells were added to make the final concentration of 2×10^6 cells/ml, then each one of the test compounds of the present invention was added thereto to make the test group sample. On the other hand, water was added in place of the test compound of the present invention to make the control group sample. Each of the test group samples and the control group samples were subjected to pre-incubation at 37° C. for 1 minute.
As to the stimulating agent for releasing superoxide radicals (O2^-), FMLP (formylmethionyl leucyl phenylalanine)was added to each one of the test sample solutions and the control group samples to make the final concentration of FMLP to 10^-7 M, then the sample solutions were subjected to additional reaction by incubation for 1 minute.
Difference between the optical absorbances measured at 550 nm (OD550) of both test group samples and control group samples were determined, the 50% inhibitory concentration (IC50) was obtained by calculating as the ratio of OD550 of the test group sample to that of the control group sample.

[4] = tested on: passive Heymann nephritis of rat; experiment: Inhibitory effect against increase of urinary proteins in the passive Heymann nephritis of rat; type: in vivo, SD-strain male rats; settings: oral, once a day for 7 days, urinary protein, 12th day
Protocol: Inhibitory effect against increase of urinary proteins in the passive Heymann nephritis of rat
SD-strain male rats (7 week old, body weight: 200-230 g)were used as test animals.
An antiserum which will induce passive Heymann nephritis of rat was prepared by procedures according to the method of T. S. Edington, et al. [T. S. Edington, R. J. Glassock and F. J. Dixon: Autologous immune complex nephritis induced with renal tublar antigen. I. Identification and isolation of the pathogenetic antigen. Journal of Experimental Medicine Vol. 127, pp. 555-572 (1968).] as follows:
At the first, an antigen (FX1A fraction) of the renaltublar brush border was sampled from the SD rat. Next, the antigen was admixed with Freund' complete adjuvant, then a New Zealand White rabbit was sensitized therewith. The sensitization procedures were conducted 3 times in every 2 weeks, and 2 weeks after the final sensitization, the blood sample was obtained from the rabbit. […]
Heymann nephritis of the rats were induced by injecting the above-mentionedantiserum to the tail vein of the test rats. […] The urine samples of the rat were taken in time sequentially from the 10th day after the injection, and the amount of urinary protein in the samples were determined. The rate of inhibitory effect (%) against the production of urinary protein performed by the test compound was calculated by the formula as follows: […]

| Compound | inhibition at 3 µg/mL [1] [%] | inhibition at 10 µg/mL [1] [%] | IC50 [2] [µg/mL] | IC50 [3] [µg/mL] | Rate of inhibitory effect ([4]; 20 mg/kg/day) [%] | Rate of inhibitory effect ([4]; 5 mg/kg/day) [%] |
| --- | --- | --- | --- | --- | --- | --- |
| CC(C)C[C@@H]1C(=O)N[C@H](Cc2cc(C(C)(C)C)c(O)c(C(C)(C)C)c2)C(=O)N1O (racemic) [Example 13, (3RS,6RS)-3-(3,5-di-tert-butyl-4-hydroxybenzyl)-1-hydroxy-6-isobutylpiperazine-2,5-dione] | 77.9 ± 8.3 | 122 ± 6.1 | < 5 | 1.3 (≈ 3.21 µM) | 57.8 ± 6.1 | – |
| CCOC(=O)C[C@@H]1NC(=O)[C@@H](Cc2c[nH]c3ccccc23)N(O)C1=O [Example 57] | 26.3 ± 5.8 | 56.7 ± 2.9 | 3 (≈ 8.69 µM) | – | – | 53.1 ± 15.1 |
